31 molecules from patent publication US6911443B2 (Bayer Aktiengesellschaft, priority 2000, dated 2005) can be followed below.

Some results are limits rather than exact numbers.

The first test concerns the target T1, human Syk (GST-Syk) (Homo sapiens, UniProt P43405).
T1 construct: A cDNA fragment encoding human Syk openreading frame was cloned; made in house; host or cells: Sf21 insect cells (baculovirus, transfer vector pAcG2T)
Description: Syk tyrosine kinase inhibitory assay. As to conditions: Table 11; read-out: Activity grade. It is filed as biochemical. The gist of the method:
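Readout: streptavidin-captured biotin-AL peptide probed with europium-4G10 anti-phosphotyrosine, time-resolved fluorescence (ex 340/em 615 nm). Reaction ran 1 h at room temperature with 30 μM ATP, 3 μM peptide, 0.65 nM Sf21-expressed GST-Syk and 0.25% DMSO, pH 8.0.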
For the molecule `COc1ccc(-c2cc3nccn3c(Nc3ccccc3)n2)cc1O` [Example 12-10], the IC50 is under 500 nM.

As to `COc1ccc(Nc2nc(-c3ccc(N(C)C)c(OC)c3)cc3nccn23)cc1` [Example 12-52], the IC50 is under 500 nM.

In the case of `COc1cc(-c2cc3nccn3c(Nc3ccccc3)n2)ccc1NCCCN1CCN(C)CC1` [Example 12-39], the IC50 was under 500 nM.

The same test, now with this note: Table 13.
Consider `Clc1ccc(-c2cc3ncnn3c(Sc3ccccc3)n2)cn1` [Example 14-9], for which the Activity grade result is recorded as “C-D”.

On to `CCCCCCSc1nc(-c2ccc(OC)c(OC)c2)cc2nccn12` [Example 14-18], for which the Activity grade entry was “C-D”.

The test is the same for the next values; noted with them: Table 13; read-out: Activity grade.
With `COc1ccc(-c2cc3nccn3c(SCCNC(=O)OC(C)(C)C)n2)cc1OC` [Example 14-24], the IC50 lay in the range of 500 to 2000 nM.

Staying with this test, now noted: Table 15; read-out: Activity grade.
As for `COc1ccc(-c2cc3nccn3c(Sc3ccc(S(=O)(=O)N4CCCCC4)cc3)n2)cc1OC` [Example 16-2], the IC50 is under 500 nM.

Still in this test, the particulars now being: Table 16; read-out: Activity grade.
As for `COc1ccc(Nc2nc(-c3ccc(N4CCCC4)c(OC)c3)cc3nccn23)cc1` [Example 17-16], the IC50 was under 500 nM.

The test is the same for the next values; noted with them: Table 17; IC50 classes; read-out: Activity grade.
In the case of `Cc1c(N)cccc1Oc1nc(-c2ccc(OC3CCCC3)c(O)c2)cc2ncnn12` [compound 15], the IC50 was 2000 to 10000 nM.

Staying with this test, now noted: in vitro; compounds as yielded by solid phase synthesis, purity about 40 to 90%.
With `CCSc1nc(-c2ccc(F)c(F)c2)cc2nccn12` [Example 8-7], the “Activity grade (IC50 class)” value is given as “C-D”.

Still in this test, the particulars now being: in vitro; compounds as yielded by solid phase synthesis, purity about 40 to 90%; read-out: Activity grade (IC50 class).
Regarding `COc1ccc(-c2cc3nccn3c(Nc3cccc(C(C)=O)c3)n2)cc1OC` [Example 11-59], the IC50 is under 500 nM.

Take `COc1ccc(-c2cc3nccn3c(Nc3ccc(OCCN4CCOCC4)cc3)n2)cc1OC` [Example 11-91]: the IC50 was under 500 nM.

`CCOC(=O)CN(C)c1nc(-c2ccc(OC)c(OC)c2)cc2nccn12` [Example 9-77]: the IC50 is 2000 to 10000 nM.

On to `COc1ccc(-c2cc3nccn3c(N(C)c3cccc(Cl)c3)n2)cc1OC` [Example 11-50], for which the IC50 was under 500 nM.

As for `COc1ccc(-c2cc3nccn3c(Nc3cc(F)c(F)cc3F)n2)cc1OC` [Example 11-40], the IC50 was under 500 nM.

In the case of `CCSc1nc(-c2ccc(OC(C)C)c(OC)c2)cc2nccn12` [Example 3-5], the IC50 is under 500 nM.

Take `COc1ccc(-c2cc3nccn3c(Nc3ccc(CCC4=NC(C)(C)CO4)cc3)n2)cc1OC` [Example 9-22]: the IC50 is under 500 nM.

`COc1ccc(Nc2nc(-c3ccc(OC)c(OC)c3)cc3nccn23)cc1NCCN(C)CCO` [Example 11-112]: the IC50 fell in the range of 500 to 2000 nM.

For the molecule `CCSc1nc(-c2ccc(OC)c(OCCN3CCOCC3)c2)cc2nccn12` [Example 5-12], the IC50 lay within 500 to 2000 nM.

For the molecule `Cc1c(N)cccc1Oc1nc(-c2ccc(O)c(O)c2)cc2ncnn12` [Example 14], the IC50 was under 500 nM.

As for `COc1ccc(-c2cc3nccn3c(Nc3cccc(C)c3)n2)cc1OC` [Example 11-7], the IC50 is under 500 nM.

As to `COc1ccc(-c2cc3nccn3c(Sc3cc(OC)c(OC)c(OC)c3)n2)cc1OC` [Example 13-8], the IC50 was under 500 nM.

On to `COc1ccc(-c2cc3nccn3c(N3CCC4(CC3)OCCO4)n2)cc1OC` [Example 9-66], for which the IC50 was in the range of 2000 to 10000 nM.

In the case of `COc1ccc(-c2cc3nccn3c(Sc3ccc4c(c3)CNCC4)n2)cc1OC` [Example 13-14], the IC50 is under 500 nM.

`CCOCCOc1ccc(-c2cc3nccn3c(SCC)n2)cc1OCCOCC` [Example 6-2]: the IC50 fell in the range of 500 to 2000 nM.

On to `COc1ccc(-c2cc3nccn3c(Sc3nccn3C)n2)cc1OC` [Example 13-12], for which the IC50 was under 500 nM.

On to `COc1ccc(-c2cc3nccn3c(Nc3ccc(C(=N)N)cc3)n2)cc1OC` [Example 11-67], for which the IC50 is under 500 nM.

With `COc1ccc(Nc2nc(-c3ccc(OC)c(OC)c3)cc3nccn23)cc1NCCN1CCOCC1` [Example 11-111], the IC50 lay within 2000 to 10000 nM.

As to `COc1ccc(Nc2nc(-c3ccc(OC)c(OC)c3)cc3nccn23)cc1OC` [Example 11-84], the IC50 is under 500 nM.

Turning to `COc1ccc(-c2cc3nccn3c(Nc3ccc(O)cc3)n2)cc1OC` [Example 11-29], the IC50 is under 500 nM.

As to `COc1ccc(-c2cc3nccn3c(Nc3cc(F)cc(F)c3)n2)cc1OC` [Example 11-39], the IC50 is under 500 nM.
